Assays:
NADPH-reduced TrxR1 = target: T1, NADPH-reduced TrxR1 (Homo sapiens, UniProt Q16881); assay: Bio-layer interferometry (BLI) binding assay, TrxR1
T1 construct: purchased Abcam ab204206
T1 sequence (Q16881 1-499 isoform Q16881-5): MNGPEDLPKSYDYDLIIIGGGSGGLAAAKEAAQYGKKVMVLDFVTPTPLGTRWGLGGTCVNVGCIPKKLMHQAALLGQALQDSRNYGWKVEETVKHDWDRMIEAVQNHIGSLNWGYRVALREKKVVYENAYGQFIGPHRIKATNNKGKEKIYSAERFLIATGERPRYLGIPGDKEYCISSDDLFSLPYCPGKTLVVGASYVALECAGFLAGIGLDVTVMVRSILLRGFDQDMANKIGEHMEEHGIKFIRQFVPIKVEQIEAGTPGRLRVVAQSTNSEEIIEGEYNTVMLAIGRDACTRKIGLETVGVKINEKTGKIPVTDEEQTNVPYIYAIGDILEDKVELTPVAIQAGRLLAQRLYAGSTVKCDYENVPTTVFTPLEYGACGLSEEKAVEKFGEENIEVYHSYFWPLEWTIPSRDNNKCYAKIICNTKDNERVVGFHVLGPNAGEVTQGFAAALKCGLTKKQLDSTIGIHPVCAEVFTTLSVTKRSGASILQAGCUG
Procedure: (§1) The binding kinetics of PepE or PepA to purified recombinant proteins were determined using BLI on an Octet RED 96 system (ForteBio, Shanghai, China) following the manufacturer's protocol. All interaction analyses were performed at 25 °C in PBS with 0.2% DMSO. Purified recombinant proteins (0.9 μM, the TrxR1 full length and TrxR1 protein fragment were pre-reduced by 400 μM of NADPH before test) were pre-labeled with biotin using […] (Abcam) following the manufacturer's instruction. Loading of the Dip and Read Super Streptavidin (SSA) Biosensors (ForteBio) were conducted by exposing biotinylated proteins to biosensor tips for 2 h. The 96-well microplates used in the Octet were filled with 200 μL sample or buffer per well and agitated at 1000 rpm. The loaded biosensors were washed in buffer for 600 s and transferred to wells containing PepE at concentrations of 0.625, 1.25, 2.5, 5, and 10 μM or PepA at concentrations of 1.25, 2.5, 5, 10 and 20 μM, respectively, in the buffer. […] Reference measurements were conducted using the buffer instead of PepE (or PepA). A parallel set of SA unloaded biosensors was prepared to act as a control. The sample-sensorgrams were corrected by subtracting the double reference curve. Kinetic parameters (Kon and Kdis) and affinity (KD) were determined from a global fit to a 1:1 binding model of the data between proteins and PepE using Octet software (ForteBio).

[1] = test system: Trx-ASK1 complex in KG-1a CD34+ cells; assay: Trx1 immunoprecipitation, Trx-ASK1 interaction; format: cell-based, human; details: 0.5, 2.0, 5.0 μM
Procedure: The KG-1a CD34^+ cells were treated with PepE or vehicle control (DMSO) for 12 h. The cellular proteins were extracted by RIPA buffer and quantified by the Bradford method. For each cell lysate, a volume containing 1 mg protein was mixed with 1 μg anti-Trx1 antibody coupled to 20 μL protein G-Sepharose (Abcam) and tumbled at 4 °C for 2 h. The Sepharose beads were then washed three times at 4 °C with a washing buffer containing 50 mM Tris (pH = 7.4), 0.5 M NaCl, and 1 mM EGTA. The immunoprecipitated proteins were eluted and denatured by 2×SDS-PAGE loading buffer and then boiled for 5 min. The eluted solutions were then centrifuged at 12000 g; the supernatants were collected and stored at −20 °C for SDS-PAGE and western blot analyses.

recombinant human TrxR1 = target: T2, recombinant human TrxR1 (Homo sapiens, UniProt Q16881); assay: In vitro TrxR1 activity assay (DTNB reduction); format: biochemical
T2 construct: purchased Abcam ab204206
T2 sequence (Q16881 1-499 isoform Q16881-5): T1 sequence (Q16881 1-499 isoform Q16881-5)
Procedure: The in vitro TrxR1 activity assay was performed using the DTNB reduction assay. Briefly, 0.1 μM recombinant human TrxR1 or TrxR1 without Sec498 residue (TrxR1 nSec) protein was reduced with 100 μM NADPH in assay buffer (50 mM Tris-HCl, 1 mM EDTA, pH = 7.5) for 30 min at room temperature. The reduced proteins was then treated with the indicated concentrations of PepE (final concentrations of 0.25, 0.5, 1, 2, 4, 6 μM), respectively, and incubated for 1 h at 37 °C. A mixture of assay buffer solution (50 mM Tris-HCl, 1 mM EDTA, pH = 7.5) containing DTNB and NADPH was added then added, making the final concentrations of DTNB and NADPH 2 mM and 200 μM, respectively. The absorbance was monitored at 412 nm using the SpectraMax i3x microplate reader (Molecular Devices). The linear increase of absorbance during the initial 3 min was recorded for calculating the relative enzyme activity. The same amount of DMSO was added to the control experiments and the activity is expressed as the percentage of the control.

GSS = target: T3, GSS (Homo sapiens, UniProt P48637); assay: BLI binding assay, GSS
T3 construct: purchased Abcam
T3 sequence (P48637 1-474): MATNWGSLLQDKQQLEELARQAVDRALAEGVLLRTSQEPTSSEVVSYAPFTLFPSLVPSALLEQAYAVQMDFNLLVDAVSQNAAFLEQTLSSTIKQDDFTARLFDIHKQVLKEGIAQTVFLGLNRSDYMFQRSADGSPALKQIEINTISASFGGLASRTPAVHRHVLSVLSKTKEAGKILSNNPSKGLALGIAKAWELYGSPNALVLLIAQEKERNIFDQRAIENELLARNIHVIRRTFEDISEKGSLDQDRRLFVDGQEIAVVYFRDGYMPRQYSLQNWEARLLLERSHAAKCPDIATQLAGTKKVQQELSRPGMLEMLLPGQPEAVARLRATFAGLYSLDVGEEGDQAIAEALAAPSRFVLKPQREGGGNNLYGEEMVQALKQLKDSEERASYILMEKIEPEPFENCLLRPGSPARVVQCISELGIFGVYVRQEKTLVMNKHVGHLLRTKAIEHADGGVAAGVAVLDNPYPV
Procedure: as §1

[2] = set-up: method as in earlier work; details: formulated with phosphate acid; cited from earlier work

| SMILES | kon (NADPH-reduced TrxR1) | Kd (NADPH-reduced TrxR1; NADPH-reduced TrxR1 0.9 μM, 25 °C) | Kd (NADPH-reduced TrxR1; Table S3) | koff (NADPH-reduced TrxR1; read-out: Kdis) | amount of ASK1 bound to Trx1 [1] | IC50 (recombinant human TrxR1; DTNB reduction assay, NADPH-reduced TrxR1 0.1 μM, 1 h at 37 °C) | reversibility of TrxR1 inhibition (recombinant human TrxR1; removal of PepE by Sephadex G-25 desalting column did not recover activity (data not shown)) | Kd (GSS) | kon (GSS) | koff (GSS; read-out: Kdis) | increased solubility in water compared to PepE [2] |
| --- | --- | --- | --- | --- | --- | --- | --- | --- | --- | --- | --- |
| C=C1C(=O)OC[C@H]1C(c1cc(OC)c2c(c1)OCO2)c1cc(OC)c2c(c1)OCO2 [PepE, Peperomin E] | 12400 M⁻¹ s⁻¹ | 340 nM | 341 nM | 0.00423 s⁻¹ | dose-dependent decrease | 940 nM | irreversibly | 272000 nM | 2740 M⁻¹ s⁻¹ | 0.745 s⁻¹ | – |
| COc1cc(C(c2cc(OC)c3c(c2)OCO3)[C@@H]2COC(=O)[C@H]2CN(C)CCO)cc2c1OCO2 [DMAPE, (2S,3S)-6-Methyl (hydroxyethyl) amino-2,6-dihydropeperomin E] | – | – | – | – | – | – | – | – | – | – | more than 1000 fold |
